16 compounds from patent publication US20220324876A1, “4-SUBSTITUTED PYRANO[3,4,b]PYRAZINE KAPPA AGONISTS FOR TREATING DRUG DEPENDENCY” (The Rockefeller University, priority 2019, published 2022) can be followed below.

Structures are written as SMILES.

The target in data set [1] is kappa opioid receptor (hOPRK1) β-arrestin (Homo sapiens, UniProt P41145). The data set is described as follows: β-arrestin PathHunter assay (U2OS hOPRK1). The settings on record: for Arrestin efficacy, %: Table E.
The target of data set [2] is T1, human kappa opioid receptors (Homo sapiens, UniProt P41145).
T1 construct: expressed in transfected cells; host or cells: U2OS
T1 sequence (P41145 whole entry): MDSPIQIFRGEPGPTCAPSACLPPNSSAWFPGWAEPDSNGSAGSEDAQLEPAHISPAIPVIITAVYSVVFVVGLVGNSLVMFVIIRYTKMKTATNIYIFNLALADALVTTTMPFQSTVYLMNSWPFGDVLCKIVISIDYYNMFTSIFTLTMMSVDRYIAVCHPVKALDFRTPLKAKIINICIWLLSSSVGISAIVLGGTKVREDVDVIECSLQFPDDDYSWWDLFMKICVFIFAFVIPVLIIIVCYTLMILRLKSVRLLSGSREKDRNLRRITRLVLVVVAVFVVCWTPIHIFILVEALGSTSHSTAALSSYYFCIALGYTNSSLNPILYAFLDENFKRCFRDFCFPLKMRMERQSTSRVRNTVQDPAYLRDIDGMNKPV
The data set is described as follows: [35S]GTPγS binding, membranes from U2OS cells. Format: biochemical. The settings on record: for Emax: read-out: GTPγS (% efficacy).

In data set [3] the test system is male mice. The data set is described as follows: Serum prolactin release in mice. Format: in vivo. The following applies: dose-response experiment.
For data set [4], the system named is male mice. The data set is described as follows: Rotarod incoordination (sedation) in mice. Format: in vivo. From the text: In the case of rotarod incoordination, kappa agonist effects in this assay reflect kappa-opioid receptor arrestin mediated signaling. This assay is thought to be a sensitive measure of the sedative properties of kappa opioid receptor agonists. Generally, a compound which has reduced efficacy in the coupling of arrestin with the kappa opioid receptor is thought to have a lowered potential for the sedative side effects of kappa opioid receptor ligands Rotarod assays in vivo are employed to confirm this possibility.
Rotarod experiments are conducted with mice using a dedicated rodent rotarod apparatus, with up to five animals tested concurrently (IITC Life Science, Woodland Hills, Calif, USA). Rotarod rotation rate begins at 3 rotations per minute, and ramps to 30 rotations per minute over the course of 300 s, at which time the assay is terminated and animals removed to their home cage. Animals are acclimated to the rotarod on at least two occasions prior to the day of the test. On the day of the test, baseline times for each animal to fall off the rotarod are recorded. Mice are then injected intraperitoneally with vehicle or compound, and rotarod measurements conducted, beginning 0-2 minutes after injection, and then subsequently at select time points thereafter. Animals which fail to remain on the rotarod for at least 150 seconds during baseline testing are removed from the analysis.
(The closure of laboratories during the covid-19 pandemic delayed the carrying out of conditioned place aversion assays and modulation of cocaine self-administration, so that results were not available by the filing date of this application.)

Sequence of kappa opioid receptor (hOPRK1) β-arrestin (P41145 whole entry): as above

Take `CC(C)(O)CN1CCN(C(=O)Cc2ccc(Cl)c(Cl)c2)[C@H]2[C@H]1COC[C@@H]2N1CCCC1` (single isomer, unassigned) [Example 5A90A]: the EC50 in data set [1] turned out to be 43200 nM; in data set [2] (GTPγS EC50 (nM), Table D) it was 22 nM; in data set [2] (GTPγS potency (nM), Table E), 34.7 nM. The “Arrestin efficacy, %” value in data set [1] stood at 78.1%. Further, the “GTPγS efficacy, %” value in data set [2] (Table E) is 91.0%. For the same compound, the Emax in data set [2] came to 101%.

With `CC(C)(O)CN1CCN(C(=O)Cc2ccc(Cl)c(Cl)c2)[C@H]2[C@H](N3CCCC3)COC[C@@H]21` (single isomer, unassigned) [Example 5A90B], the “stimulation of prolactin levels” value in the data set with male mice [3] (30 mg/kg (p<0.05)) and with male mice [3] (90 mg/kg (p<0.005)) was “statistically significant stimulation” each time. Further, the EC50 in data set [1] was 5250 nM; in data set [2] (GTPγS EC50 (nM), Table D), 5.4 nM; in data set [2] (GTPγS potency (nM), Table E) it was 8.9 nM. In data set [1], the “Arrestin efficacy, %” value is 46.5%. The figures for the “sedative effect in rotarod” value in the data set with male mice [4] (10 mg/kg intraperitoneally), in the data set with male mice [4] (30 mg/kg intraperitoneally) and with male mice [4] (90 mg/kg intraperitoneally) were “not”, “not” and “substantial sedative effect”, respectively. In addition, the “GTPγS efficacy, %” value in data set [2] (Table E) worked out at 69.3%. In data set [2], the Emax came to 68%.

As for `COCCN1CCN(C(=O)Cc2ccc(Cl)c(Cl)c2)[C@H]2[C@H](N3CCCC3)COC[C@@H]21` (single isomer, unassigned) [Example 5A141B], a half-maximal effect in data set [2] (GTPγS EC50 (nM), Table D) (EC50) was put at 26 nM. For the same compound, in data set [2], the Emax stood at 103%.

In data set [2] (GTPγS EC50 (nM), Table D), `O=C(Cc1ccc(Cl)c(Cl)c1)N1CCN(CCC2COC2)[C@@H]2COC[C@H](N3CCCC3)[C@H]21` (single isomer, unassigned) [Example 5A142A] registered an EC50 of 70 nM. For the same compound, in data set [2], the Emax turned out to be 77%.

For `O=C(Cc1ccc(Cl)c(Cl)c1)N1CCN(Cc2cccc(F)c2)[C@@H]2COC[C@H](N3CCCC3)[C@H]21` (single isomer, unassigned) [Example 5A145A], the EC50 in data set [2] (GTPγS EC50 (nM), Table D) was determined as 5 nM. For the same compound, in data set [2], the Emax was determined as 95%.

As for `O=C(Cc1ccc(Cl)c(Cl)c1)N1CCN(Cc2cccc(F)c2)[C@H]2COC[C@@H](N3CCCC3)[C@@H]21` (single isomer, unassigned) [Example 5A145B], the EC50 in data set [2] (GTPγS EC50 (nM), Table D) worked out at 9.7 nM. In data set [2], the Emax worked out at 91%.

In data set [2] (GTPγS EC50 (nM), Table D), `COCCS(=O)(=O)N1CCN(C(=O)Cc2ccc(Cl)c(Cl)c2)[C@H]2[C@H]1COC[C@@H]2N1CCCC1` (single isomer, unassigned) [Example 5A146A] displayed an EC50 of 9.2 nM. The Emax in data set [2] is 91%.

`COCCS(=O)(=O)N1CCN(C(=O)Cc2ccc(Cl)c(Cl)c2)[C@H]2[C@H](N3CCCC3)COC[C@@H]21` (single isomer, unassigned) [Example 5A146B]: a half-maximal response in data set [2] (GTPγS EC50 (nM), Table D) (EC50) required 115 nM. The Emax in data set [2] worked out at 127%.

`O=C(Cc1ccc(Cl)c(Cl)c1)N1CCN(Cc2ccon2)[C@@H]2COC[C@H](N3CCCC3)[C@H]21` [Example 5A86A] returned an EC50 in data set [2] (GTPγS EC50 (nM), Table D) of 1 nM. For the same compound, in data set [2], the Emax stood at 99%.

`O=C(Cc1ccc(Cl)c(Cl)c1)N1CCN(Cc2ccon2)[C@H]2COC[C@@H](N3CCCC3)[C@@H]21` [Example 5A86B] yielded an EC50 in data set [2] (GTPγS EC50 (nM), Table D) of 23 nM. Besides, the Emax in data set [2] is 79%.

As for `CC(O)CN1CCN(C(=O)Cc2ccc(Cl)c(Cl)c2)[C@H]2[C@H]1COC[C@@H]2N1CCCC1` (stereo partly drawn) [Example 5A89], in data set [2] (GTPγS EC50 (nM), Table D), the EC50 came to 34 nM. The Emax in data set [2] came to 93%.

In the case of `O=C(Cc1ccc(Cl)c(Cl)c1)N1CCN(CC2CCOC2)[C@@H]2COC[C@H](N3CCCC3)[C@H]21` (stereo partly drawn) [Example 5A93], the EC50 in data set [2] (GTPγS EC50 (nM), Table D) came out at 46 nM. The Emax in data set [2] is 80%.

For the compound `CC(C)(O)C(=O)N1CCN(C(=O)Cc2ccc(Cl)c(Cl)c2)[C@H]2[C@H]1COC[C@@H]2N1CCCC1` [Example 5A96A], the EC50 in data set [1] stood at 3760 nM; in data set [2] (GTPγS EC50 (nM), Table D), 17 nM; in data set [2] (GTPγS potency (nM), Table E) it was 32.8 nM. Moreover, the “Arrestin efficacy, %” value in data set [1] is 53.0%. Also, the “sedative effect in rotarod” value in the data set on male mice [4] (up to 90 mg/kg intraperitoneally) is recorded as “no statistically significant sedative effect”. Besides, the “GTPγS efficacy, %” value in data set [2] (Table E) worked out at 77.0%. For the same compound, in data set [2], the Emax was determined as 64%.

Take `CC(C)(O)C(=O)N1CCN(C(=O)Cc2ccc(Cl)c(Cl)c2)[C@H]2[C@H](N3CCCC3)COC[C@@H]21` [Example 5A96B]: the EC50 was 24800 nM in data set [1]; 64 nM in data set [2] (GTPγS EC50 (nM), Table D); 71.4 nM in data set [2] (GTPγS potency (nM), Table E). In addition, the “Arrestin efficacy, %” value in data set [1] is recorded as 60.7%. Moreover, the “GTPγS efficacy, %” value in data set [2] (Table E) stood at 123.5%. Besides, the Emax in data set [2] is 113%.

In the case of `CC(F)(F)CN1CCN(C(=O)Cc2ccc(Cl)c(Cl)c2)[C@H]2[C@H]1COC[C@@H]2N1CCCC1` [Example 5A127A], it took 5.3 nM to reach a half-maximal effect in data set [2] (GTPγS EC50 (nM), Table D) (EC50). For the same compound, in data set [2], the Emax amounted to 110%.

For the compound `CC(F)(F)CN1CCN(C(=O)Cc2ccc(Cl)c(Cl)c2)[C@H]2[C@H](N3CCCC3)COC[C@@H]21` [Example 5A127B], the EC50 in data set [2] (GTPγS EC50 (nM), Table D) is 24 nM. Further, the Emax in data set [2] was 88%.
